Assay results from patent publication US8361962B2, “Tricyclic inhibitors of JAK” (Roche Palo Alto LLC, priority 2009, dated 2013).

Target: T1, h-jak3 (JAK3: Recombinant human kinase domain) (Homo sapiens, UniProt P52333)
T1 construct: JAK3: Recombinant human kinase domain from Millipore (Cat # 14-629); purchased Millipore 14-629
Test: Determination of IC50 of Janus Kinase (JAK) inhibition, radioactive end-point 33P-ATP assay, JAK3
Assay type: biochemical
Source text: Determination of IC50 of Janus Kinase (JAK) Inhibition:
Enzymes and peptide substrate used are described below: • JAK1: Recombinant human kinase domain from Invitrogen (Cat # PV4774) • JAK3: Recombinant human kinase domain from Millipore (Cat # 14-629) • JAK2: Recombinant human kinase domain from Millipore (Cat # 14-640) • Substrate: N-terminally biotinylated 14-mer peptide derived from activation loop of JAK1 with sequence of the peptide substrate: Biotin-KAIETDKEYYTVKD (SEQ ID NO: 1)
Assay conditions used are described below: • Assay Buffer: JAK Kinase Buffer: 50 mM Hepes [pH 7.2], 10 mM MgCl2, 1 mM DTT, 1 mg/ml BSA. The assay is carried out in this buffer. • Assay Format: The kinase activity of all three JAK kinases is measured using a radioactive, end-point assay and with trace amounts of ^33P-ATP. The assays are carried out in 96-well polypropylene plates. Experimental Method:
All concentrations are final in the reaction mixture and all incubations are carried at room temperature. Assay steps are described below: • Compounds are serially diluted in 100% DMSO typically at a 10× starting concentration of 1 mM. Final concentration of DMSO in the reaction is 10%. • Compounds are preincubated with enzyme (0.5 nM JAK3, 1 nM JAK2, 5 nM JAK1) for 10 minutes. • Reactions are initiated by the addition of a cocktail of the two substrates (ATP and peptide premixed in the JAK Kinase Buffer). In the JAK2/JAK3 assays, ATP and the peptide are used at concentrations of 1.5 uM and 50 uM, respectively. JAK1 assay is carried out at an ATP concentration of 10 uM and a peptide concentration of 50 uM. The duration of the assay for JAK2 and JAK3 is 20 minutes. JAK1 assay is carried out for 40 minutes. With all three enzymes, reactions are terminated by the addition of 0.5M EDTA to a final concentration of 100 mM. • 25 ul of terminated reactions are transferred to 150 ul of a 7.5% (v/v) slurry of streptavidin-coated sepharose beads in MgCl2- and CaCl2-free 1× Phosphate Buffered Saline containing 50 mM of EDTA in 96-well, 1.2 um MultiScreen-BV filter plates. After a 30-minute incubation, the beads are washed under vacuum with the following buffers: • 3 to 4 washes with 200 ul of 2M NaCl. • 3 to 4 washes with 200 ul of 2M NaCl plus 1% (v/v) phosphoric acid. • 1 wash with water. • Washed plates are dried in a 60° C. oven for between 1 to 2 hours. • 70 ul of Microscint 20 scintillation fluid is added to each well of filter plates and after at least 30 minutes of incubation, radioactive counts are measured in a Perkin Elmer microplate scintillation counter.

T1 sequence (P52333 822-1111 limits assumed): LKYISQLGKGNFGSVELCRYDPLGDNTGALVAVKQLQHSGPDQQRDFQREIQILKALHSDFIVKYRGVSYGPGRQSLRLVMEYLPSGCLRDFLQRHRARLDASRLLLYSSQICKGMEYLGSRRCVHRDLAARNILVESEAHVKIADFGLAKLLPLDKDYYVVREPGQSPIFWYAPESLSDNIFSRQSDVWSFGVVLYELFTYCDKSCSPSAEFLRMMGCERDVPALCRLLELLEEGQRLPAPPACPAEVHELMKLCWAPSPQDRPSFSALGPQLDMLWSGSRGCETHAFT

IC50 [µM]	Ki [µM]	SMILES
0.093	0.0477	c1cc2c(ncc3cnc(C4CCCCC4)n32)[nH]1 [Compound I-10, 1-Cyclohexyl-6H-2,5,6,8b-tetraaza-as-indacene]
0.0399	0.0205	CC1CCCCN1c1ccc2cnc3[nH]ccc3n12 (centres unmarked) [Compound I-3, 8-(2-Methyl-piperidin-1-yl)-3H-3,4,8a-triaza-as-indacene]
0.0202	0.0104	c1cc2c(ncc3ccc(C4CCCCC4)n32)[nH]1 [Compound I-2, 8-Cyclohexyl-3H-3,4,8a-triaza-as-indacene]
0.231	0.103	CCS(=O)(=O)N1CC[C@@H](C)[C@@H](c2nnc3cnc4[nH]ccc4n23)C1 [Compound I-7, 1-((3R,4R)-1-Ethanesulfonyl-4-methyl-piperidin-3-yl)-6H-2,3,5,6,8b-pentaaza-as-indacene]
0.449	0.225	c1cc2c(ncc3nnc(C4CCCCC4)n32)[nH]1 [Compound I-8, 1-Cyclohexyl-6H-2,3,5,6,8b-pentaaza-as-indacene]
	0.000964	CCS(=O)(=O)N1CC[C@H](C)[C@H](c2ccc3cnc4[nH]ccc4n23)C1 [Compound I-4, 8-((3S,4S)-1-Ethanesulfonyl-4-methyl-piperidin-3-yl)-3H-3,4,8a-triaza-as-indacene]
0.025	0.0128	C[C@H]1CCN(C(=O)CC#N)C[C@H]1c1nnc2cnc3[nH]ccc3n12 [Compound I-9, 3-[(3S,4S)-4-Methyl-3-(6H-2,3,5,6,8b-pentaaza-as-indacen-1-yl)-piperidin-1-yl]-3-oxo-propionitrile]
0.203	0.119	CCS(=O)(=O)N1CCC(C)[C@H](c2ccc3cnc4[nH]ccc4n23)C1 (stereo in doubt) [Compound I-5, 8-((3S,4S)-1-Ethanesulfonyl-4-methyl-piperidin-3-yl)-3H-3,4,8a-triaza-as-indacene]
0.0693	0.0355	C[C@H]1CCCC[C@H]1c1nnc2cnc3[nH]ccc3n12 [Compound I-6, 1-((1R,2S)-2-Methyl-cyclohexyl)-6H-2,3,5,6,8b-pentaaza-as-indacene]
